Measurements published in ChEMBL document CHEMBL1135433 (J Med Chem, 2002).
pIC50: −log10 of the molar value.

Test: Concentration required for 50% inhibition of Shiga-like toxin type 1 (Stx1A1)

## Cc1nc2c(=O)[nH]c(N)nc2o1
  pIC50: 3.00

## Nc1nc(O)c2nc(CNc3ccc(C(=O)O)cc3)cnc2n1 [PTEROIC ACID]
  pIC50: 3.22

## Nc1nc2c(c(=O)[nH]1)CC=N2
  pIC50: 2.70

## Cc1cc2c(O)[nH]c(N)nc-2n1
  pIC50: 2.37
